Several values for one entry are separate records, joined by “and”; a condition that tells them apart may be missing. Equal entries are not always repeated. Where two headings read alike, the source gives them in different places.
Legend:
[1] = test system: cytochrome P450 enzymes in phLMs; assay: Inhibition of cytochrome P450 enzymes in pooled human liver microsomes (phLM); assay type: biochemical
From the text: Pooled human liver microsomes were used to test the potential impact of the inhibitors on multiple polymorphisms of highly promiscuous, drug metabolizing CYPs[27]. There are more than 10 different CYPs in this preparation, and the use of pooled microsomes ensures that genetic variability in CYPs is represented. […] This is notable, as the liver CYPs have evolved to bind the widest possible variety of molecules.
Commercial preparations of pooled human liver microsomes come from 50 individuals, providing representation of biologically relevant CYP variants. Compounds were screened for inhibition of cytochrome P450 enzymes in phLMs using a 96-well kinetic assay. […] Compound stocks were diluted in dose–response, and added in 100 mM potassium phosphate buffer pH 7.8 with 50 µM 7-benzoyloxy-4-trifluoromethylcoumarin (Corning, prepared as a 10 mM DMSO stock) and 16 µg of phLMs (XenoTech, prepared as 20 mg protein/mL suspended in 250 mM sucrose) per well (n = 3). The compounds were incubated for 5 min in the absence of light at 25 °C. The 96-well plate was then either protected from light or irradiated with red light for 1 h (660 nm, 58.7 J/cm^2). Enzymatic turnover was initiated upon addition of NADPH (TCI, prepared immediately prior to addition) at a concentration 1.2 mM per well. To determine background fluorescence from the assay, NADPH was omitted from several control wells. The reactions were immediately placed in a SpectraFluor Plus plate reader (Tecan) preheated to 37 °C, and fluorescence measurements taken every 3 min for 120 min with excitation of 435 nm and emission of 525 nm. Fluorescence measurements in the […], and the data was processed with GraphPad Prism 6. The linear portion of the signal for each dose point with respect to time was first fitted to a line to determine the rate. The resulting slope of these lines was then plotted against the logarithmic concentration of the study compound to provide a dose–response curve.

[2] = target: T1, CYP19A1 (Homo sapiens, UniProt P11511); assay: In cell activity assay for CYP19A1 (dibenzylfluorescein conversion, HEK293 T-Rex cells); assay type: cell-based
T1 sequence (P11511 1-503): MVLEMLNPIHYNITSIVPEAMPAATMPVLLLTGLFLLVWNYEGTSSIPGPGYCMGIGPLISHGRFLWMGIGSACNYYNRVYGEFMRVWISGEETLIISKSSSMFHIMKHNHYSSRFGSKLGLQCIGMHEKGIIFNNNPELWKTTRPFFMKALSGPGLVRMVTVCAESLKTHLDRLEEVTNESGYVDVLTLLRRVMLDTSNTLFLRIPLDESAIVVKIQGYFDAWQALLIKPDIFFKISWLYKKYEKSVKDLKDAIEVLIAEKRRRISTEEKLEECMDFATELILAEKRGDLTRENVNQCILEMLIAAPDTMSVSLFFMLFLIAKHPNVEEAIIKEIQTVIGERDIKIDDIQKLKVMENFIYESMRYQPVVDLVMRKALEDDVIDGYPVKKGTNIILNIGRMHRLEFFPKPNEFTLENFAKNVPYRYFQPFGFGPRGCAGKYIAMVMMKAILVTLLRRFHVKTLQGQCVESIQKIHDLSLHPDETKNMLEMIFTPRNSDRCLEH
Description: Thus, the activity against CYP19A1 was evaluated using a recently developed in-cell fluorometric assay.
REE or DBF was added as described above.

[3] = target: T2, CYP1B1 (Homo sapiens, UniProt Q16678); assay: In cell activity assay for CYP1B1 (7-ethoxyresorufin conversion, HEK293 T-Rex cells); conditions: for IC50: n = 3; for % Enzyme Activity: CYP1B1, dark
T2 sequence (Q16678 1-543): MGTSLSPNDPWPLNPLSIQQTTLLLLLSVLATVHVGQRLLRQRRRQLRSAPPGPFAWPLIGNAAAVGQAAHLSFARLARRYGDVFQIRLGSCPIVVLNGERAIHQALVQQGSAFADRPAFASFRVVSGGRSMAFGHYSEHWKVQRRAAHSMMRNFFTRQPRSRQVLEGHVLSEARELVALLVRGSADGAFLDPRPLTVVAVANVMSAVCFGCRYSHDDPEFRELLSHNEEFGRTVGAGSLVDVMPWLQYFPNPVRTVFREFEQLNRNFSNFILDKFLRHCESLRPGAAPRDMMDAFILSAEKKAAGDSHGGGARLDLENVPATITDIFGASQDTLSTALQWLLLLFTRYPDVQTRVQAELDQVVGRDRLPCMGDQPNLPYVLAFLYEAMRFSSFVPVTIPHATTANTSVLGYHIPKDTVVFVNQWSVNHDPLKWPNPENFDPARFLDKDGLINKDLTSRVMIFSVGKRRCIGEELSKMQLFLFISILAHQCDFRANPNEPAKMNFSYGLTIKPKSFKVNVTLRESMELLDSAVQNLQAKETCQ

[4] = Cellular viability (resazurin to resorufin, 72 h); assay type: cell-based, human; conditions: human, parental HEK293 T-Rex cells, HEK293 T-Rex, after 72 hrs; for viability at 72 h, 1.11 μM: Log Conc 0.045757; for viability at 72 h, 30 μM: Log Conc 1.47712; for viability at 72 h, 0.37 μM: Log Conc -0.43136; for viability at 72 h, 0.123 μM: Log Conc -0.90849; for viability at 72 h, 0.0412 μM: Log Conc -1.38561; for viability at 72 h, 0.0137 μM: Log Conc -1.86273
Description: (§1) The cells were >70% viable at 72 h with 10 μM compound, as quantified by metabolically active cells determined by the conversion of resazurin to resorufin (Supplementary Figs. 18–20).
(§2) The parental HEK T-Rex cell line was maintained as above, in the absence of Zeocin. Compounds were serially diluted in media, and the cells were dosed from 0–30 μM compound, and then incubated at 37 °C (n = 3). […] The cells were incubated with the compound in the dark for 30 min prior to light exposure, using the same parameters as in the enzyme activity assay, and then treated as above.

[5] = test system: HEK293 T-Rex cell line; assay: Cellular viability (resazurin to resorufin, 72 h); assay type: cell-based, human; conditions: HEK293 T-Rex, after 72 hrs
Description: as §1, §2

[6] = Dark, conversion of dibenzylfluorescein (DBF), read-out: IC50 CYP19A1 Dark

SMILES | IC50 [2, 6] [µM] | viability at 72 h, 1.11 μM [4] [%] | viability at 72 h, 30 μM [4] [%] | viability at 72 h, 0.37 μM [4] [%] | viability at 72 h, 0.123 μM [4] [%] | viability at 72 h, 0.0412 μM [4] [%] | viability at 72 h, 0.0137 μM [4] [%] | % Viable ([5]; Log Conc 0.045757) | % Viable ([5]; Log Conc 0.522879) | % Viable ([5]; Log Conc 1) | % Viable ([5]; Log Conc 1.47712) | % Viable ([5]; Log Conc -0.43136) | % Viable ([5]; Log Conc -0.90849) | % Viable ([5]; Log Conc -1.38561) | % Viable ([5]; Log Conc -1.86273) | also measured
COc1ccc(/C=C/c2cc[n+]([Ru-4]345([n+]6ccccc6-c6cccc([n+]63)-c3cccc[n+]34)[n+]3c(cc(C(=O)[O-])c4ccccc43)-c3cc(C(=O)[O-])c4ccccc4[n+]35)cn2)c(OC)c1 [Compound 5] | 28.3 |  |  |  |  |  |  |  |  |  |  |  |  |  |  | IC50 ([1]; Dark, conversion of 7-benzoyloxy-4-trifluoromethylcoumarin, read-out: IC50 phLM Dark): > 30 µM; IC50 ([1]; Light: 660 nm, 58.7 J/cm^2, read-out: IC50 phLM Light): ~30 µM; SI (1B1:phLM) ([1]; ratio of IC50 phLM to CYP1B1, for complexes 4–6 IC50 (light)): ∼1750; IC50 ([2]; Light: 660 nm, 58.7 J/cm^2, DBF, read-out: IC50 CYP19A1 Light): 11.2 µM; impact on CYP19A1 ([2]; at concentrations ≥10 μM (so in the source)): no impact; SI (1B1:19A1) ([2]; ratio of IC50 CYP19A1 to CYP1B1, for complexes 4–6 IC50 (light)): 660; IC50 ([3]; read-out: IC50 CYP1B1 Dark, Dark, conversion of 7-ethoxyresorufin (REE)): 1.73 µM; IC50 ([3]; read-out: IC50 CYP1B1 Light, Light: 660 nm, 58.7 J/cm^2, REE): 0.017 µM
COc1cc(/C=C/c2ccc(OC)cc2OC)cc(OC)c1 [Compound 1, reference compound] | > 30 | 91.2 | 68.4 | 98.9 | 98.4 | 97.1 | 99.3 | 81.8963% and 90.1938% | 71.5944% and 78.1539% | 79.5836% and 68.5529% | 62.2316% and 63.1567% | 95.7862% and 89.6612% | 94.8612% and 92.8008% | 93.2073% and 97.8887% | 106.593% and 96.3469% | viability at 72 h, 3.33 μM ([4]; Log Conc 0.522879): 76.6%
COc1ccc(C=Cc2ccncc2)c(OC)c1 [Compound 3] | 14.4 | 96.6 | 140 | 92.3 | 93.3 | 90.3 | 103 | 97.2552% and 97.1817% | 116.518% and 106.568% and 128.158% | 141.882% and 148.217% and 166.23% | 142.875% and 157.603% | 103.982% and 85.443% | 97.2307% and 93.9713% | 97.0469% and 84.1196% | 98.309% and 101.936% | % Enzyme Activity ([3]; Log Conc 0.39794): -5.843% and -5.409% and -4.402%; % Enzyme Activity ([3]; Log Conc 1): -2.892% and -0.02892% and -1.938%; % Enzyme Activity ([3]; Log Conc -0.20412): -3.135% and -2.441% and -3.396%; % Enzyme Activity ([3]; Log Conc -0.80618): 0.2661% and -0.4628% and 0.4396%; % Enzyme Activity ([3]; Log Conc -1.40824): 4.865% and 3.164% and 4.917%; % Enzyme Activity ([3]; Log Conc -2.0103): 14.3229% and 13.9758% and 14.3403%; % Enzyme Activity ([3]; Log Conc -2.61236): 26.2625% and 28.9697% and 28.1888%; % Enzyme Activity ([3]; Log Conc -3.21442): 46.5321% and 40.302% and 39.9202%; % Enzyme Activity ([3]; Log Conc -3.81648): 56.0248% and 55.8165% and 54.8794%; % Enzyme Activity ([3]; Log Conc -4.41854): 73.8474% and 69.3527% and 65.1356%; % Enzyme Activity ([3]; Log Conc -5.0206): 73.3268% and 74.7498% and 84.3119%; % Enzyme Activity ([3]; Log Conc -5.62266): 93.7872% and 77.0753% and 77.7868%; % Enzyme Activity ([3]; Log Conc -6.22472): 92.9716% and 93.6311% and 94.2558%; % Enzyme Activity ([3]; Log Conc -6.82678): 109.545% and 110.274% and 80.1816%

Reference: PMC9233675, “Ru(II) photocages enable precise control over enzyme activity with red light” (Nature Communications, 2022)
